In patent publication US20220289678A1, “COMPOUND, POLYMER, AND ORGANIC MATERIAL, AND OPTICAL APPARATUS, OPTICAL PART, AND IMAGE DISPLAY APPARATUS USING THE ORGANIC MATERIAL” (Sony Group Corporation, priority 2019, published 2022):
Where two headings read alike, the source gives them in different places.

What was measured:
[1] = Refractive index of compound, Abbe refractometer, calibration curve extrapolated; format: physicochemical; details: for Refractive index compared with compound (11-1) according to Test Example 15: comparison in words; for Refractive index: average refractive index to light of 589 nm, 25±1° C., acetone or chloroform solution, extrapolated to volume fraction 1
Experimental: Note that the refractive index can be measured by a critical angle method or a spectroscopic ellipsometry method. For example, in the critical angle method, measurement can be performed using an Abbe refractometer ER-1 manufactured by ERMA INC (measurement wavelengths are measured in visible light areas using 486 nm, 589 nm, 656 nm, and the like).
(§1) An acetone solution or a chloroform solution of each of the compounds according to Test Examples 1 to 15 was prepared, and the average refractive index to light of 589 nm at room temperature of 25±1° C. was measured by an Abbe refractometer (manufactured by ERMA INC., ER-1), and plotted against the volume fraction of each compound to prepare a calibration curve. Note that as the density of each compound, a value determined by a dry densitometer (AccuPyc II 1340-10CC (manufactured by Shimadzu Corporation)) was used. The calibration curve was extrapolated, and the refractive index when the volume fraction of each compound became 1 was used as the refractive index of each compound. The measurement results of the refractive index and density (g/cm^3) of each of the compounds according to Test Examples 1 to 15 are shown in Table 1 below.

[2] = Density by dry densitometer; format: physicochemical; details: dry densitometer AccuPyc II 1340-10CC
Experimental: as §1

[3] = Solubility in organic solvent, visual dissolution; format: physicochemical; details: ultrasonic stirring
Experimental: 20 mg of each of the compounds according to Test Examples 1 to 15 was weighed into a vial bottle, acetone was added to make a total amount of […], and then, the mixture was stirred with ultrasonic waves for 30 seconds. In the case where there was an undissolved product by visual recognition, a small amount of acetone was added thereto, and the mixture was stirred for another 30 seconds. The task described above was repeated, and the solubility was calculated from the total amount of solvents when all were dissolved.

[4] = commercial product, Osaka Gas Chemical Co., Ltd.; cited from earlier work

Molecule	Density [2] [g/mL]	Solubility Acetone [3] [wt %]	Solubility Chloroform [3] [wt %]	Refractive index [1]	Refractive index compared with compound (11-1) according to Test Example 15 [1]	Refractive index [4]
C=CC(=O)OCCCCOc1cc(OCCCCOC(=O)C=C)cc(-n2c3ccc4ccccc4c3c3c4ccccc4ccc32)c1 [(10-11)]	–	–	–	–	higher than the refractive index of the compound (11-1)	–
C=CC(=O)OCCOc1cc(Cn2c3ccc4ccccc4c3c3c4ccccc4ccc32)cc(OCCOC(=O)C=C)c1 [(10-3)]	1.29	–	–	1.71	higher than the refractive index of the compound (11-1)	–
bisphenoxyethanol fluorene diacrylate [EA-0200]	–	–	–	–	–	1.62
C=C(C)C(=O)OCC(Cn1c2ccc3ccccc3c2c2c3ccccc3ccc21)OC(=O)C(=C)C (centres unmarked) [(10-5)]	1.26	–	19	1.72	higher than the refractive index of the compound (11-1)	–
C=C(C)C(=O)OCCOCC(Cn1c2ccc3ccccc3c2c2c3ccccc3ccc21)OCCOC(=O)C(=C)C (centres unmarked) [(10-7)]	–	–	–	–	higher than the refractive index of the compound (11-1)	–
C=CC(=O)OCCOCC(Cn1c2ccc3ccccc3c2c2c3ccccc3ccc21)OCCOC(=O)C=C (centres unmarked) [(10-6)]	–	–	–	–	higher than the refractive index of the compound (11-1)	–
C=CC(=O)OCCOc1cc(OCCOC(=O)C=C)cc(-n2c3ccc4ccccc4c3c3c4ccccc4ccc32)c1 [(10-10)]	1.27	–	–	–	higher than the refractive index of the compound (11-1)	–

More lines, main results first:

Density [2] [g/mL]	Solubility Acetone [3] [wt %]	Solubility Chloroform [3] [wt %]	Refractive index [1]	Molecule	Refractive index compared with compound (11-1) according to Test Example 15 [1]	Refractive index [4]
1.22	–	–	–	C=CC(=O)OCCn1c2ccc3ccccc3c2c2c3ccccc3ccc21 [(6-3)]	higher than the refractive index of the compound (11-1)	–
1.3	5	17	–	C=CC(=O)Oc1cc(Cn2c3ccc4ccccc4c3c3c4ccccc4ccc32)cc(OC(=O)C=C)c1 [(10-1)]	higher than the refractive index of the compound (11-1)	–
1.26	–	–	1.69	C=CC(=O)OCCOc1cc(OCCOC(=O)C=C)cc(-n2c3ccccc3c3c4ccccc4ccc32)c1 [(10-12)]	higher than the refractive index of the compound (11-1)	–
1.31	3	–	–	C=CC(=O)Oc1cc(OC(=O)C=C)cc(-n2c3ccc4ccccc4c3c3c4ccccc4ccc32)c1 [(6-8)]	higher than the refractive index of the compound (11-1)	–
1.22	–	–	1.72	C=CC(=O)OCC(Cn1c2ccc3ccccc3c2c2c3ccccc3ccc21)OC(=O)C=C (centres unmarked) [(10-4)]	higher than the refractive index of the compound (11-1)	–
1.29	20	–	1.73	C=CC(=O)Oc1cc(CCn2c3ccc4ccccc4c3c3c4ccccc4ccc32)cc(OC(=O)C=C)c1 [(10-2)]	higher than the refractive index of the compound (11-1)	–
1.3	18	–	1.74	C=CC(=O)OCCn1c2ccccc2c2c3ccccc3ccc21 [(10-8)]	higher than the refractive index of the compound (11-1)	–
1.31	5	13	1.74	C=CC(=O)OCCn1c2ccccc2c2ccc3ccccc3c21 [(10-9)]	higher than the refractive index of the compound (11-1)	–
1.21	44	–	1.68	C=CC(=O)OCCn1c2ccccc2c2ccccc21 [(11-1), acrylic acid 2-(9H-carbazol-9-yl) ethyl, reference compound]	–	–
